Article PMC12401175, “Construction of hyperthermostable D‐allulose 3‐epimerase from Arthrobacter globiformis M30 using the sequence information from Arthrobacter psychrolactophilus” (FEBS Open Bio, 2025)
Where two headings read alike, the source gives them in different places.

Tests used:
AgDAE [1] = molecular target: T1, AgDAE (Arthrobacter globiformis, UniProt A0A1L7NQ96); assay type: biochemical; details: 50 °C, 50 mM sodium phosphate pH 8.0, 2 mM MgSO4; read-out: Allulose → Fructose / K m
T1 sequence (A0A1L7NQ96 1-289): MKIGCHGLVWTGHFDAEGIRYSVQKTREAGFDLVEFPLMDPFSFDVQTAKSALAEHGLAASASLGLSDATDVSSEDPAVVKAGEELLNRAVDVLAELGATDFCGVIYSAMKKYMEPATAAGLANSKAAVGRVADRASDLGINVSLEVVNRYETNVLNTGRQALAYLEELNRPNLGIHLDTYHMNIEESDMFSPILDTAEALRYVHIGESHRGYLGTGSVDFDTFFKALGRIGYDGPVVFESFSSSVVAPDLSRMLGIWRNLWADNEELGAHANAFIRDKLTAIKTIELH

AgDAE [2] = molecular target: T1, AgDAE; assay type: biochemical; details: 50 °C, 50 mM sodium phosphate pH 8.0, 2 mM MgSO4; read-out: Fructose → Allulose / K m

Compound	Km (AgDAE [1]) [mM]	Km (AgDAE [2]) [mM]
OCC1(O)OC[C@@H](O)[C@@H](O)[C@H]1O (stereo partly drawn) [D-allulose]	11.7 ± 0.7	–
OCC1(O)OC[C@@H](O)[C@@H](O)[C@@H]1O (stereo partly drawn) [D-fructose]	–	21.1 ± 5.6
